In PubChem BioAssay AID212 (DTP/NCI, 2004) one finds T/C data, which are given here for 13 molecules.

Where “and” joins values, the source holds several entries; their conditions need not be identical. Identical values can stand only once. Results filed as inconclusive are left out.

The assay relates to BDF1 mice, colon carcinoma 38 sc, T/C %. The assay is described as follows: NCI In Vivo Anticancer Drug Screen. Data for tumor model Colon Carcinoma 38 (subcutaneous) in B6D2F1 (BDF1) mice. The essentials: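 Ratio of survival or tumor size, compound-treated animals relative to vehicle controls, in tumor-bearing mice.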
The mark [1] stands for this setting: endpoint: median tumor weight (est.), dose: 12.5 mg/kg/injection, schedule: Q07DX002 (ip), vehicle: saline with Tween-80, higher = larger tumour.
[2] abbreviates: endpoint: median tumor weight (est.), dose: 12.5 mg/kg/injection, schedule: Q07DX002 (ip), vehicle: saline, higher = larger tumour.
The mark [3] stands for this setting: endpoint: median tumor weight (est.), dose: 50.0 mg/kg/injection, schedule: Q07DX002 (ip), vehicle: saline, higher = larger tumour.
Setting [4] is: endpoint: median tumor weight (est.), dose: 100.0 mg/kg/injection, schedule: Q07DX002 (ip), vehicle: saline, higher = larger tumour.
Setting [5] is: endpoint: median tumor weight (est.), dose: 400.0 mg/kg/injection, schedule: Q07DX002 (ip), vehicle: saline, higher = larger tumour.
[6] abbreviates: endpoint: median tumor weight (est.), dose: 1.0 mg/kg/injection, schedule: Q07DX002 (ip), vehicle: saline, higher = larger tumour.
The mark [7] stands for this setting: endpoint: median tumor weight (est.), dose: 4.0 mg/kg/injection, schedule: Q07DX002 (ip), vehicle: saline, higher = larger tumour.

Take `CN1C(=O)C(=Cc2ccc(O)cc2)C(=O)N(C)C1=O`: the T/C runs as follows: under setting [1], 105 % of control; (endpoint: median tumor weight (est.), dose: 25.0 mg/kg/injection, schedule: Q07DX002 (ip), vehicle: saline with Tween-80, higher = larger tumour) 53 % of control.

`NC(C/[N+]([O-])=N/O)C(=O)O` (stereo not drawn): the T/C was 109 % of control (endpoint: median survival time, dose: 52.7 mg/kg/injection, schedule: Q04DX005 (ip), vehicle: alkali diluted with saline, higher = longer survival); 86 % of control and 88 % of control (endpoint: median survival time, dose: 79.0 mg/kg/injection, schedule: Q04DX005 (ip), vehicle: alkali diluted with saline, higher = longer survival); 109 % of control and 116 % of control (endpoint: median survival time, dose: 119.0 mg/kg/injection, schedule: Q04DX005 (ip), vehicle: alkali diluted with saline, higher = longer survival); 100 % of control and 102 % of control (endpoint: median survival time, dose: 178.0 mg/kg/injection, schedule: Q04DX005 (ip), vehicle: alkali diluted with saline, higher = longer survival); 93 % of control and 94 % of control (endpoint: median survival time, dose: 267.0 mg/kg/injection, schedule: Q04DX005 (ip), vehicle: alkali diluted with saline, higher = longer survival); 95 % of control (endpoint: median survival time, dose: 400.0 mg/kg/injection, schedule: Q04DX005 (ip), vehicle: alkali diluted with saline, higher = longer survival). Besides, the T/C was 79 % of control (endpoint: median survival time, dose: 600.0 mg/kg/injection, schedule: Q04DX005 (ip), vehicle: alkali diluted with saline, higher = longer survival); 108 % of control (endpoint: median tumor weight (est.), dose: 32.0 mg/kg/injection, schedule: Q07DX003 (ip), vehicle: saline, higher = larger tumour); 70 % of control (endpoint: median tumor weight (est.), dose: 64.0 mg/kg/injection, schedule: Q07DX003 (ip), vehicle: saline, higher = larger tumour); 92 % of control (endpoint: median tumor weight (est.), dose: 128.0 mg/kg/injection, schedule: Q07DX003 (ip), vehicle: saline, higher = larger tumour); 100 % of control (endpoint: median tumor weight (est.), dose: 256.0 mg/kg/injection, schedule: Q07DX003 (ip), vehicle: saline, higher = larger tumour); 56 % of control (endpoint: median tumor weight (est.), dose: 512.0 mg/kg/injection, schedule: Q07DX003 (ip), vehicle: saline, higher = larger tumour). For the same molecule, the T/C (endpoint: median tumor weight (est.), dose: 1024.0 mg/kg/injection, schedule: Q07DX003 (ip), vehicle: saline, higher = larger tumour) was 72 % of control.

On to `COC1CC(NC(=O)N(CCCl)N=O)C(O)C(CO)O1` (stereo not drawn), for which the T/C (endpoint: median tumor weight change, dose: 10.0 mg/kg/injection, schedule: Q04DX003 (oral), vehicle: saline, higher = larger tumour) is 5 % of control.

As for `COc1cc2cc3c4cc(OC)c(OC)cc4cc[n+]3c(C)c2cc1OC` (tested in a mixture with another compound), the T/C by setting is: (endpoint: median tumor weight (est.), dose: 50.0 mg/kg/injection, schedule: Q07DX003 (ip), vehicle: saline, higher = larger tumour) 164 % of control; (endpoint: median tumor weight (est.), dose: 100.0 mg/kg/injection, schedule: Q07DX003 (ip), vehicle: saline, higher = larger tumour) 77 % of control and 96 % of control; (endpoint: median tumor weight (est.), dose: 400.0 mg/kg/injection, schedule: Q07DX003 (ip), vehicle: saline, higher = larger tumour) 53 % of control.

Turning to `COc1cccc2c1C(=O)c1c(O)c3c(c(O)c1C2=O)C[C@@](O)(/C(C)=N/NC(=O)c1ccccc1)C[C@@H]3OC1CC(N)C(O)C(C)O1` (stereo partly drawn), the T/C by setting is: (endpoint: median tumor weight (est.), dose: 2.0 mg/kg/injection, schedule: Q07DX002 (ip), vehicle: water, higher = larger tumour) 100 % of control; (endpoint: median tumor weight (est.), dose: 4.0 mg/kg/injection, schedule: Q07DX002 (ip), vehicle: water, higher = larger tumour) 107 % of control; (endpoint: median tumor weight (est.), dose: 8.0 mg/kg/injection, schedule: Q07DX002 (ip), vehicle: water, higher = larger tumour) 102 % of control; (endpoint: median tumor weight (est.), dose: 16.0 mg/kg/injection, schedule: Q07DX002 (ip), vehicle: water, higher = larger tumour) 16 % of control.

As for `COC1/C=C\C=C(/C)C(=O)NC2=CC(=O)C=C(C2=O)C(OC)C(C)CC(OC)C(OC)C(C)/C=C(/C)C1OC(N)=O` (stereo not drawn), the T/C is, setting by setting: (endpoint: median tumor weight (est.), dose: 1.5 mg/kg/injection, schedule: Q07DX002 (ip), vehicle: Klucel (hydroxypropylcellulose) (HPC), higher = larger tumour) 159 % of control; (endpoint: median tumor weight (est.), dose: 6.0 mg/kg/injection, schedule: Q07DX002 (ip), vehicle: Klucel (hydroxypropylcellulose) (HPC), higher = larger tumour) 117 % of control; (endpoint: median tumor weight (est.), dose: 12.0 mg/kg/injection, schedule: Q07DX002 (ip), vehicle: Klucel (hydroxypropylcellulose) (HPC), higher = larger tumour) 115 % of control.

Consider `CC1(C)CC23C4COC(=O)C2CCC1C3CC4=O` (stereo not drawn), for which the T/C reads like this: (endpoint: median tumor weight (est.), dose: 6.25 mg/kg/injection, schedule: Q07DX002 (ip), vehicle: DMSO, higher = larger tumour) 116 % of control and 101 % of control; (endpoint: median tumor weight (est.), dose: 25.0 mg/kg/injection, schedule: Q07DX002 (ip), vehicle: DMSO, higher = larger tumour) 81 % of control and 92 % of control; (endpoint: median tumor weight (est.), dose: 50.0 mg/kg/injection, schedule: Q07DX002 (ip), vehicle: DMSO, higher = larger tumour) 121 % of control and 105 % of control; (endpoint: median tumor weight (est.), dose: 200.0 mg/kg/injection, schedule: Q07DX002 (ip), vehicle: DMSO, higher = larger tumour) 103 % of control.

Consider `C(COCCOCC1CO1)OCCOCC1CO1` (stereo not drawn), for which the T/C is, setting by setting: under setting [1], 88 % of control; under setting [2], 102 % of control; under setting [3], 158 % of control; under setting [4], 84 % of control; (endpoint: median tumor weight (est.), dose: 200.0 mg/kg/injection, schedule: Q07DX002 (ip), vehicle: saline with Tween-80, higher = larger tumour) 113 % of control; (endpoint: median tumor weight (est.), dose: 400.0 mg/kg/injection, schedule: Q07DX002 (ip), vehicle: saline with Tween-80, higher = larger tumour) 99 % of control. The T/C under setting [5] is 68 % of control.

In the case of `CC[C@]1(O)C[C@H](OC2CC(N(C)C)C(OC3CC(O)C(O)C(C)O3)C(C)O2)c2c(cc3c(c2O)C(=O)c2c(O)ccc(O)c2C3=O)[C@H]1C(=O)OC` (stereo partly drawn), the T/C was 109 % of control (endpoint: median tumor weight (est.), dose: 0.38 mg/kg/injection, schedule: Q07DX003 (ip), vehicle: Klucel (hydroxypropylcellulose) (HPC), higher = larger tumour); 45 % of control (endpoint: median tumor weight (est.), dose: 0.5 mg/kg/injection, schedule: Q07DX003 (ip), vehicle: Klucel (hydroxypropylcellulose) (HPC), higher = larger tumour); 62 % of control (endpoint: median tumor weight (est.), dose: 0.75 mg/kg/injection, schedule: Q07DX003 (ip), vehicle: Klucel (hydroxypropylcellulose) (HPC), higher = larger tumour); 25 % of control (endpoint: median tumor weight (est.), dose: 1.0 mg/kg/injection, schedule: Q07DX003 (ip), vehicle: Klucel (hydroxypropylcellulose) (HPC), higher = larger tumour); 66 % of control (endpoint: median tumor weight (est.), dose: 1.5 mg/kg/injection, schedule: Q07DX003 (ip), vehicle: Klucel (hydroxypropylcellulose) (HPC), higher = larger tumour); 73 % of control (endpoint: median tumor weight (est.), dose: 3.0 mg/kg/injection, schedule: Q07DX003 (ip), vehicle: Klucel (hydroxypropylcellulose) (HPC), higher = larger tumour). Besides, the T/C (endpoint: median tumor weight (est.), dose: 4.0 mg/kg/injection, schedule: Q07DX003 (ip), vehicle: Klucel (hydroxypropylcellulose) (HPC), higher = larger tumour) is 35 % of control; the T/C (endpoint: median tumor weight (est.), dose: 6.0 mg/kg/injection, schedule: Q07DX003 (ip), vehicle: Klucel (hydroxypropylcellulose) (HPC), higher = larger tumour) is 79 % of control; the T/C (endpoint: median tumor weight (est.), dose: 8.0 mg/kg/injection, schedule: Q07DX003 (ip), vehicle: Klucel (hydroxypropylcellulose) (HPC), higher = larger tumour) was 21 % of control.

Take `CC(C)CCCCCCCCCCCCC(=O)NCC(=O)NC1C(O)C(O)C(Nc2ncnc3nc[nH]c23)OC1C(O)CO` (stereo not drawn): the T/C by setting is: (endpoint: median tumor weight (est.), dose: 0.13 mg/kg/injection, schedule: Q07DX002 (ip), vehicle: saline, higher = larger tumour) 110 % of control; (endpoint: median tumor weight (est.), dose: 0.25 mg/kg/injection, schedule: Q07DX002 (ip), vehicle: saline, higher = larger tumour) 114 % of control; under setting [6], 71 % of control; (endpoint: median tumor weight (est.), dose: 1.0 mg/kg/injection, schedule: Q07DX002 (ip), vehicle: suspension in saline, higher = larger tumour) 114 % of control; (endpoint: median tumor weight (est.), dose: 2.0 mg/kg/injection, schedule: Q07DX002 (ip), vehicle: saline, higher = larger tumour) 87 % of control; (endpoint: median tumor weight (est.), dose: 2.0 mg/kg/injection, schedule: Q07DX002 (ip), vehicle: suspension in saline, higher = larger tumour) 113 % of control. Besides, the T/C is, setting by setting: under setting [7], 76 % of control; (endpoint: median tumor weight (est.), dose: 4.0 mg/kg/injection, schedule: Q07DX002 (ip), vehicle: suspension in saline, higher = larger tumour) 42 % of control.

For `CCCCCC(O)C1C(=O)OC(C)C(O)/C=C/C=C/C=C/C=C/C=C(\C)C(O)C(O)C(O)CC(O)CC(O)CC(O)CC(O)CC1O` (stereo not drawn), the T/C reads like this: (endpoint: median tumor weight (est.), dose: 0.5 mg/kg/injection, schedule: Q07DX002 (ip), vehicle: saline, higher = larger tumour) 92 % of control; under setting [6], 118 % of control; under setting [7], 90 % of control; (endpoint: median tumor weight (est.), dose: 8.0 mg/kg/injection, schedule: Q07DX002 (ip), vehicle: saline, higher = larger tumour) 95 % of control.

In the case of `COc1cccc2c1C(=O)c1c(O)c3c(c(O)c1C2=O)CC(O)(/C(C)=N/NC(=O)CCCCC(=O)N/N=C(\C)C1(O)Cc2c(O)c4c(c(O)c2C(OC2CC(N)C(O)C(C)O2)C1)C(=O)c1c(OC)cccc1C4=O)CC3OC1CC(N)C(O)C(C)O1` (stereo not drawn), the T/C runs as follows: (endpoint: median tumor weight (est.), dose: 6.25 mg/kg/injection, schedule: Q07DX002 (ip), vehicle: saline, higher = larger tumour) 46 % of control; (endpoint: median tumor weight (est.), dose: 6.25 mg/kg/injection, schedule: Q07DX002 (ip), vehicle: water, higher = larger tumour) 68 % of control; under setting [2], 32 % of control; (endpoint: median tumor weight (est.), dose: 12.5 mg/kg/injection, schedule: Q07DX002 (ip), vehicle: water, higher = larger tumour) 21 % of control.

Consider `CCCCCCCCCCCCCCCC(=O)Nc1ccn(C2OC(CO)C(O)C2O)c(=O)n1` (stereo not drawn), for which the T/C is, setting by setting: under setting [2], 41 % of control; (endpoint: median tumor weight (est.), dose: 25.0 mg/kg/injection, schedule: Q07DX002 (ip), vehicle: saline, higher = larger tumour) 88 % of control; under setting [3], 50 % of control; under setting [4], 5 % of control; (endpoint: median tumor weight (est.), dose: 200.0 mg/kg/injection, schedule: Q07DX002 (ip), vehicle: saline, higher = larger tumour) 16 % of control; under setting [5], 1 % of control.
